In ChEMBL document CHEMBL1121791, “Computer-assisted structure-activity studies of chemical carcinogens. Aromatic amines” (J Med Chem, 1981) one finds Activity data, which are given here for 35 compounds.

Holding throughout (type): functional, organism-based
Experiment [1] deals with Rattus norvegicus. Nature of the experiment: Carcinogenic activity on all sites after subcutaneous administration.
In experiment [2] the test system is Rattus norvegicus. The experiment can be described thus: Carcinogenic activity on breast after subcutaneous administration.
In experiment [3] the test system is Rattus norvegicus. The experiment can be described thus: Carcinogenic activity on other sites after subcutaneous administration.
Experiment [4] has as its system Rattus norvegicus. The experiment can be described thus: Carcinogenic activity on all sites after oral administration.
Experiment [5] has as its system Rattus norvegicus. Nature of the experiment: Carcinogenic activity on liver after oral administration.
For experiment [6], the system named is Rattus norvegicus. The experiment can be described thus: Compound was tested for carcinogenic activity on ear duct after oral administration of the compound; na denotes not available.
Experiment [7] concerns Rattus norvegicus. The experiment can be described thus: Carcinogenic activity on other sites after oral administration.
Experiment [8] concerns Rattus norvegicus. Nature of the experiment: Carcinogenic activity on ear duct after subcutaneous administration.
Experiment [9] has as its system Rattus norvegicus. Nature of the experiment: Carcinogenic activity on breast after oral administration of the compound.
The test system of experiment [10] is Rattus norvegicus. The experiment can be described thus: Carcinogenic activity on mixed data after oral administration.
The test system of experiment [11] is Rattus norvegicus. The experiment can be described thus: Compound was tested for carcinogenic activity on ear duct after oral administration of the compound; + denotes carcinogenic activity.
Experiment [12] concerns Rattus norvegicus. The experiment can be described thus: Compound was tested for carcinogenic activity on other sites after various routes administration of the compound; + denotes carcinogenic activity.
Experiment [13] deals with Rattus norvegicus. Nature of the experiment: Compound was tested for carcinogenic activity on all sites after various routes administration of the compound; + denotes carcinogenic activity.
For experiment [14], the system named is Rattus norvegicus. Nature of the experiment: Compound was tested for carcinogenic activity on breast after various routes administration of the compound; + denotes carcinogenic activity.
Experiment [15] has as its system Rattus norvegicus. The experiment can be described thus: Compound was tested for carcinogenic activity on liver after various routes administration of the compound; + denotes carcinogenic activity.
The subject of experiment [16] is Rattus norvegicus. Nature of the experiment: Compound was tested for carcinogenic activity on mixed data after various routes administration of the compound; + denotes carcinogenic activity.
Experiment [17] has as its system Rattus norvegicus. The experiment can be described thus: Compound was tested for carcinogenic activity on ear duct after various routes administration of the compound; + denotes carcinogenic activity.
Experiment [18] relates to Rattus norvegicus. The experiment can be described thus: Compound was tested for carcinogenic activity on mixed data after subcutaneous administration of the compound; + denotes carcinogenic activity.
For experiment [19], the system named is Rattus norvegicus. Nature of the experiment: Carcinogenic activity on liver after subcutaneous administration.
In experiment [20] the test system is Rattus norvegicus. Nature of the experiment: Compound was tested for carcinogenic activity on liver after oral administration of the compound; na denotes data not available.
For experiment [21], the system named is Rattus norvegicus. Nature of the experiment: Compound was tested for carcinogenic various routes subcutaneous administration of the compound; + denotes carcinogenic activity.
Experiment [22] has as its system Rattus norvegicus. Nature of the experiment: Compound was tested for carcinogenic activity on mixed data after various routes administration of the compound; + denotes carcinogenic activity.
Experiment [23] relates to Rattus norvegicus. Nature of the experiment: Carcinogenic activity on all sites after intraperitoneal administration.
Experiment [24] concerns Rattus norvegicus. Nature of the experiment: Carcinogenic activity on breast after intraperitoneal administration.
Experiment [25] deals with Rattus norvegicus. The experiment can be described thus: Carcinogenic activity on ear duct after oral administration.
Experiment [26] has as its system Rattus norvegicus. Nature of the experiment: Compound was tested for carcinogenic activity on all sites after topical administration of the compound; + denotes carcinogenic activity.
Experiment [27] has as its system Rattus norvegicus. Nature of the experiment: Compound was tested for carcinogenic activity on breast after topical administration of the compound; + denotes carcinogenic activity.
The subject of experiment [28] is Rattus norvegicus. The experiment can be described thus: Compound was tested for carcinogenic activity on other sites after topical administration of the compound; + denotes carcinogenic activity.
Experiment [29] deals with Rattus norvegicus. The experiment can be described thus: Compound was tested for carcinogenic activity on other sites after intraperitoneal administration of the compound; + denotes carcinogenic activity.
For experiment [30], the system named is Rattus norvegicus. Nature of the experiment: Tested for carcinogenic activity on breast after oral administration of the compound; - denotes non carcinogenic activity.
Experiment [31] has as its system Rattus norvegicus. Nature of the experiment: Carcinogenic activity on ear duct after oral administration of the compound; - denotes non carcinogenic activity.
The test system of experiment [32] is Rattus norvegicus. Nature of the experiment: Compound was tested for carcinogenic activity on all sites after subcutaneous administration of the compound; + denotes carcinogenic activity.
The subject of experiment [33] is Rattus norvegicus. Nature of the experiment: Compound was tested for carcinogenic activity on other sites after subcutaneous administration of the compound; + denotes carcinogenic activity.
Experiment [34] has as its system Rattus norvegicus. The experiment can be described thus: Compound was tested for carcinogenic activity on liver after subcutaneous administration of the compound; + denotes carcinogenic activity.
In experiment [35] the test system is Rattus norvegicus. The experiment can be described thus: Compound was tested for carcinogenic activity on ear duct after oral administration of the compound; na denotes data not available.
Experiment [36] has as its system Rattus norvegicus. The experiment can be described thus: Carcinogenic activity after oral administration.
The subject of experiment [37] is Rattus norvegicus. Nature of the experiment: Carcinogenic activity on liver after oral administration of the compound.
The subject of experiment [38] is Rattus norvegicus. The experiment can be described thus: Compound was tested for carcinogenic activity on mixed data after oral administration of the compound; + denotes four or five active sites.

The source made the active and inactive calls. No cut-off for these calls is given here.

With `CC(=O)Nc1csc(-c2ccc([N+](=O)[O-])o2)n1`, the Activity result in the experiment with Rattus norvegicus [1], with Rattus norvegicus [2] and with Rattus norvegicus [3] was “Carcinogenic activity” throughout.

Turning to `COc1c(N)ccc2c1Cc1ccccc1-2`, the Activity result in the experiment on Rattus norvegicus [4], in the experiment on Rattus norvegicus [5] and in the experiment on Rattus norvegicus [7] was “Carcinogenic activity” in each case. In addition, the outcome in the experiment on Rattus norvegicus [6] was inactive.

Turning to `CC(=O)N(C(C)=O)c1ccc(/C=C/c2ccccc2)cc1`, the Activity result with Rattus norvegicus [1], in the experiment on Rattus norvegicus [3] and in the experiment with Rattus norvegicus [8] was “Carcinogenic activity” in each case.

As to `CN(C)c1ccc(-c2ccccc2)cc1`, the Activity entry in the experiment with Rattus norvegicus [4], in the experiment on Rattus norvegicus [9], in the experiment with Rattus norvegicus [10], in the experiment on Rattus norvegicus [11] and in the experiment on Rattus norvegicus [7] was “Carcinogenic activity” each time.

As to `CC(=O)N(O)c1ccc2c(c1)Cc1ccccc1-2`, the Activity entry in the experiment with Rattus norvegicus [12], with Rattus norvegicus [13], in the experiment with Rattus norvegicus [14], in the experiment on Rattus norvegicus [15], in the experiment on Rattus norvegicus [16] and with Rattus norvegicus [17] was “Carcinogenic activity” in each case.

With `Nc1c2ccccc2cc2ccccc12`, the Activity result in the experiment with Rattus norvegicus [1], in the experiment with Rattus norvegicus [2] and with Rattus norvegicus [18] was “Carcinogenic activity” in each case.

`Nc1ccc(-c2ccc(N)cc2)cc1`: the Activity entry in the experiment on Rattus norvegicus [1], in the experiment on Rattus norvegicus [3], with Rattus norvegicus [19], in the experiment on Rattus norvegicus [18] and with Rattus norvegicus [8] was “Carcinogenic activity” each time.

In the case of `CC(=O)N(O)c1ccc2c(ccc3ccccc32)c1`, the Activity entry with Rattus norvegicus [1], in the experiment with Rattus norvegicus [2] and in the experiment with Rattus norvegicus [3] was “Carcinogenic activity” throughout.

Take `Nc1ccc(Cc2ccc(N)cc2)cc1`: the outcome in the experiment with Rattus norvegicus [20] was inactive.

In the case of `Nc1ccc2c(c1)Cc1ccccc1-2`, the Activity result in the experiment on Rattus norvegicus [12], in the experiment on Rattus norvegicus [21], with Rattus norvegicus [14], in the experiment on Rattus norvegicus [15], in the experiment on Rattus norvegicus [22] and with Rattus norvegicus [17] was “Carcinogenic activity” throughout.

On to `ONc1ccc2c(c1)Cc1ccccc1-2`, for which the Activity result in the experiment with Rattus norvegicus [1], in the experiment with Rattus norvegicus [2], with Rattus norvegicus [3], in the experiment on Rattus norvegicus [18] and in the experiment with Rattus norvegicus [8] was “Carcinogenic activity” in each case.

Consider `CC(=O)Nc1cccc2c1Cc1ccccc1-2`, for which the Activity entry in the experiment on Rattus norvegicus [23] and in the experiment on Rattus norvegicus [24] was “Carcinogenic activity” throughout.

As for `CC(=O)N(O)c1ccc2c(c1)-c1ccccc1C2`, the Activity result in the experiment with Rattus norvegicus [23] and in the experiment with Rattus norvegicus [24] was “Carcinogenic activity” each time.

Take `Cc1cc(/N=N/c2ccccc2C)ccc1N`: the Activity entry with Rattus norvegicus [1] and with Rattus norvegicus [19] was “Carcinogenic activity” in each case.

As to `Cc1cc(-c2ccc(N)c(C)c2)ccc1N`, the Activity entry in the experiment with Rattus norvegicus [1], in the experiment with Rattus norvegicus [2], in the experiment with Rattus norvegicus [3], with Rattus norvegicus [18] and with Rattus norvegicus [25] was “Carcinogenic activity” in each case.

Take `Nc1ccc2cc3ccccc3cc2c1`: the Activity result in the experiment on Rattus norvegicus [26], in the experiment with Rattus norvegicus [27] and in the experiment with Rattus norvegicus [28] was “Carcinogenic activity” each time.

In the case of `Nc1ccc(/C=C/c2ccc(F)cc2)cc1`, the Activity result in the experiment with Rattus norvegicus [1], in the experiment on Rattus norvegicus [3], with Rattus norvegicus [19], in the experiment with Rattus norvegicus [10] and in the experiment with Rattus norvegicus [8] was “Carcinogenic activity” each time.

Consider `O=S(=O)(c1ccccc1)N(O)c1ccc2c(c1)Cc1ccccc1-2`, for which the Activity result with Rattus norvegicus [23], with Rattus norvegicus [24] and in the experiment on Rattus norvegicus [29] was “Carcinogenic activity” in each case.

`Nc1ccc(/C=C/c2ccc(N)cc2)cc1`: the Activity result in the experiment on Rattus norvegicus [1] and in the experiment on Rattus norvegicus [8] was “Carcinogenic activity” each time.

`ONc1ccc2ccccc2c1`: the Activity entry with Rattus norvegicus [23] and with Rattus norvegicus [29] was “Carcinogenic activity” in each case.

With `Cc1ccc(C(=O)Nc2ccc(S(=O)(=O)O)c3cc(S(=O)(=O)O)cc(S(=O)(=O)O)c23)cc1NC(=O)c1cccc(NC(=O)Nc2cccc(C(=O)Nc3cc(C(=O)Nc4ccc(S(=O)(=O)O)c5cc(S(=O)(=O)O)cc(S(=O)(=O)O)c45)ccc3C)c2)c1`, the result with Rattus norvegicus [4], in the experiment on Rattus norvegicus [5] and in the experiment with Rattus norvegicus [7] was Active. Moreover, the outcome in the experiment with Rattus norvegicus [30] and with Rattus norvegicus [31] was inactive.

As for `Cc1cccc(-c2ccc(N)cc2C)c1`, the Activity entry with Rattus norvegicus [32] and in the experiment with Rattus norvegicus [33] was “Carcinogenic activity” throughout.

In the case of `Nc1ccc(-c2ccc(F)cc2)cc1`, the Activity entry in the experiment with Rattus norvegicus [1], in the experiment on Rattus norvegicus [3] and with Rattus norvegicus [34] was “Carcinogenic activity” in each case.

In the case of `N#Cc1cc(/C=C/c2ccccc2)ccc1N`, the Activity result with Rattus norvegicus [1], with Rattus norvegicus [3] and with Rattus norvegicus [19] was “Carcinogenic activity” in each case.

With `O=C(c1ccccc1)N(O)c1ccc2c(c1)Cc1ccccc1-2`, the Activity entry in the experiment on Rattus norvegicus [23], with Rattus norvegicus [24] and in the experiment with Rattus norvegicus [29] was “Carcinogenic activity” throughout.

With `CC(=O)N(O)c1cccc2c1Cc1ccccc1-2`, the Activity result in the experiment with Rattus norvegicus [23] and in the experiment on Rattus norvegicus [24] was “Carcinogenic activity” in each case.

For `COc1cc(/C=C/c2ccccc2)c(OC)cc1N`, the Activity result with Rattus norvegicus [1] and in the experiment on Rattus norvegicus [8] was “Carcinogenic activity” in each case.

For the compound `CC(=O)Nc1ccc2c(c1)-c1ccccc1C2`, the Activity result in the experiment with Rattus norvegicus [23] and with Rattus norvegicus [24] was “Carcinogenic activity” throughout.

In the case of `COc1cccc(-c2cccc(OC)c2N)c1N`, the outcome in the experiment on Rattus norvegicus [35] was inactive.

As for `Nc1ccc(/C=C/c2ccc(N)cc2Cl)c(Cl)c1`, the Activity result in the experiment on Rattus norvegicus [1] and in the experiment with Rattus norvegicus [19] was “Carcinogenic activity” throughout.

As to `Nc1ccc2ccccc2c1`, the outcome in the experiment with Rattus norvegicus [4], in the experiment on Rattus norvegicus [30], with Rattus norvegicus [36], in the experiment on Rattus norvegicus [10], in the experiment on Rattus norvegicus [37] and in the experiment on Rattus norvegicus [31] was inactive.

Turning to `CC(=O)Nc1ccc(-c2ccc(NC(C)=O)cc2C)cc1`, the Activity result in the experiment on Rattus norvegicus [4], in the experiment with Rattus norvegicus [9], in the experiment on Rattus norvegicus [38], in the experiment on Rattus norvegicus [25] and in the experiment on Rattus norvegicus [7] was “Carcinogenic activity” in each case.

Consider `CC(=O)Nc1ccc2c(c1)C(=O)c1ccccc1-2`, for which the Activity entry with Rattus norvegicus [4], with Rattus norvegicus [9] and in the experiment with Rattus norvegicus [5] was “Carcinogenic activity” each time. For the same compound, the outcome in the experiment on Rattus norvegicus [35] was inactive.

For `CC(=O)Nc1ccc(-c2ccccc2)cc1`, the Activity result in the experiment on Rattus norvegicus [4], with Rattus norvegicus [9], in the experiment with Rattus norvegicus [38], in the experiment with Rattus norvegicus [25] and in the experiment on Rattus norvegicus [7] was “Carcinogenic activity” each time.

Turning to `CC(=O)Nc1ccc2[nH]c3ccccc3c2c1`, the result in the experiment on Rattus norvegicus [4], with Rattus norvegicus [30], in the experiment on Rattus norvegicus [36], in the experiment with Rattus norvegicus [10], in the experiment on Rattus norvegicus [37] and with Rattus norvegicus [31] was inactive.
